Reference: patent publication US7087648B1, “Methods for modulating macrophage proliferation using polyamine analogs” (The Regents of the University of California, priority 1997, dated 2006)

How the values were obtained:
[1] = system: AIDS related lymphoma; experiment: Clinical response to DEHOP in chemotherapy resistant AIDS related lymphoma patients; assay type: in vivo, human; conditions: for tumor relapse: after two cycles of DEHOP, no third cycle
Description: (§1) Four patients who had failed standard chemotherapy for treatment of their AIDS related lymphoma (therapy included at least CHOP chemotherapy up to six cycles). were evaluated for response to DEHOP administration in vivo. Patients had blood drawn pre administration of drug for evaluation of macrophage activation. This blood was also evaluated for response to DEHOP in vitro. […] Blood was obtained at 1 week after completion of the first and second cycles of therapy. The blood specimens were evaluated for macrophage proliferation (proliferating cell nuclear antigen, PCNA expression), and activation (percentage CD69 expression). Response to therapy was evaluated by direct observation of tumor (3 patients) and persistence or resolution of symptoms (1 patient with GI lymphoma).

[2] = system: brain cell aggregates; experiment: In vitro cell killing of brain cell aggregates by macrophage supernatants treated or not with DEHOP; assay type: cell-based, human; conditions: FIG. 2
Description: To collect a maximum number of monocytes (both heavy and light), we used a one-step Percoll protocol. 1.5 mL whole heparinised blood was mixed with an equal volume of isotonic phosphate-buffered solution and layered over 5 mL Percoll at 1.087. The cells were centrifuged, washed, and resuspended in RPMI 1640 supplemented with 10% fetal calf serum at […]. To separate non-adherent lymphocytes from adherent monocytes, culture dishes were washed with RPMI after overnight incubation. The adherent cells were re-fed with RPMI and cultured for 7 days to obtain supernatants. Supernatants were clarified by centrifugation at 90,000 g over 25% sucrose overnight. The supernatant was filtered through a 0.22 μm syringe filter and stored at −70° C.
Human fetal brain tissue from between 16 and 18 weeks' gestation was obtained from elective abortions for preparation of brain cell aggregates. These aggregates contain all the cells of the central nervous system including neurons, astrocytes, oligodendrocytes with accompanying myelin, and microglial cells. After 10 days in culture, and before experimentation, aggregates were tested for viability by trypan-blue exclusion. […]
Lactate dehydrogenase is released on cell lysis. […] The brain aggregate supernatant was reacted with yellow tetrazolium salt and absorbance was read at 490 nm. […]

[3] = system: CD14^+ cells; experiment: In vivo response of blood CD14 cells (PCNA, CD69 expression) to DEHOP in AIDS lymphoma patients; set-up: species or system human; conditions: FIG. 7
Description: as §1
Because of intercurrent medical problems the patients were not allowed to receive a third cycle of DEHOP and both patients ultimately relapsed, FL on day 47 and LT on day 54. All of the macrophage activation parameters increased in both patients prior to their clinical objective tumor relapse.

[4] = system: CD14^+/PCNA^+ peripheral blood macrophage; experiment: In vitro CD14/PCNA staining (FACSCAN) of PBMC from AIDS dementia patients cultured five days with agent; assay type: cell-based, human; conditions: for CD14^+/PCNA^+ / CD14^+/PCNA^− / total CD14: HIV dementia patient five; for CD14^+/PCNA^+: 0 drug: 74; for CD14^+/PCNA^−: 0 drug: 472; for total CD14: 0 drug: 546; for % Inhibition of CD14^+/PCNA antigen expression, mean: mean of HIV dementia patients
Description: We had previously separated peripheral blood monocytes on Ficoll. […] We then used Percoll gradient separation, which allows for denser cells to be captured. A two-step gradient was prepared in 15 mL conical tubes: bottom layer of 1.087 density Percoll, overlaid with 1.077 density. 1.5 mL whole heparinised blood was mixed with an equal volume of isotonic saline. This blood/saline was layered over the gradient and centrifuged. Cells from the 1.077 and 1.087 interfaces were collected, combined, and washed in 5 volumes of RPMI 1640. […] All further experiments were performed using 1.087 gradient.
Five×10^5 PBMC's isolated through a 1.087 g/cc Percoll/saline gradient were exposed to varied concentrations of agent after baseline CD14/PCNA staining was performed. The cells were cultured at 5×10^5 cells in RPM1-1640/10% fetal calf serum in a polypropylene tube (Falcon) at 37° C. for five days. After five days CD14/PCNA staining was performed on control and agent-treated cultures. FACSCAN analysis of PCNA-positive cells in control cultures was compared with agent-treated cultures and the percentage of control PCNA/CD14 cells was calculated. The results of such an experiment in which the effect of polyamine analog DEHOP (SunPharm; Florida) on proliferating macrophages (as detected by PCNA) from the blood of four patients with AIDS dementia are shown in FIG. 1A (with underlying data provided in Table 3). […] A comparison of the inhibitory effect of DEHOP and cyclosphosphamide, another anti-proliferative agent, was performed in vitro using the blood of one of these patients (“CB”).

[5] = system: human brain tumor cell lines; conditions: cited from earlier work

Which “Response to Therapy: objective measured tumor response after first week of Rx” value ([1]; patient four, DEHOP sq for 5 days, 25 or 50 mg/m^2) does the source give for `CCNCCCCNCCCCNCCCCNCC` [DEHOP, 1,14-bis(ethylamino)-5,10-diazatetradecane] here?
The value was >50% objective measured tumor.

And the tumor relapse ([1]; patient four)?
Its tumor relapse is 47 days.

What about the “Response to Therapy” value ([1]; patient one, DEHOP sq for 5 days, 25 or 50 mg/m^2) of the same molecule?
The value was “None”.

What about the “Response to Therapy” value ([1]; patient three, DEHOP sq for 5 days, 25 or 50 mg/m^2) of the same molecule?
The value was “Clinical Response”.

And the tumor relapse ([1]; patient three)?
The tumor relapse was 54 days.

And the “Response to Therapy” value ([1]; patient two, DEHOP sq for 5 days, 25 or 50 mg/m^2)?
The value was “None”.

And the clinical response ([1]; patients, day 35 after initiation of study)?
The clinical response was “objective and subjective responses”.

And the “cell killing by macrophage supernatants” value ([2]; non-dementia disease control (AIDS lymphoma), with or without DEHOP treatment)?
Its value is “did not show significant cell killing”.

What about the “cell killing by macrophage supernatants” value ([2]; peripheral blood of an AIDS dementia patient, preparations treated with DEHOP) of the same molecule?
Its value is “virtually disappeared”.

And the “PCNA/CD69 expression of CD14 cells” value ([3]; after administration of drug)?
Its value is “generally decreased”.

And the “expression of all macrophage activation parameters” value ([3]; day 35 after initiation of study)?
The value was “low to background level”.

And the “PCNA^+/CD14 cell survival” value ([4]; FIG. 6, averages of several (N) experiments)?
Its value is “decrease”.

And the “% Inhibition of CD14^+/PCNA antigen expression” value ([4]; HIV dementia patient 1, DEHOP 2 um)?
Its value is 79%.

What about the “% Inhibition of CD14^+/PCNA antigen expression” value ([4]; HIV dementia patient 1, DEHOP 10 um) of the same molecule?
The value was 95%.

What about the “% Inhibition of CD14^+/PCNA antigen expression” value ([4]; HIV dementia patient 1, DEHOP 50 um) of the same molecule?
Its value is 84%.

What about the “% Inhibition of CD14^+/PCNA antigen expression” value ([4]; HIV dementia patient 2, DEHOP 0.4 um) of the same molecule?
The value was 94%.

And the “% Inhibition of CD14^+/PCNA antigen expression” value ([4]; HIV dementia patient 2, DEHOP 2 um)?
The value was 94%.

And the “% Inhibition of CD14^+/PCNA antigen expression” value ([4]; HIV dementia patient 2, DEHOP 10 um)?
The value was 97%.

And the “% Inhibition of CD14^+/PCNA antigen expression” value ([4]; HIV dementia patient 3, DEHOP 0.4 um)?
Its value is 66%.

What about the “% Inhibition of CD14^+/PCNA antigen expression” value ([4]; HIV dementia patient 3, DEHOP 2 um) of the same molecule?
Its value is 62%.

And the “% Inhibition of CD14^+/PCNA antigen expression” value ([4]; HIV dementia patient 3, DEHOP 10 um)?
Its value is 58%.

And the “% Inhibition of CD14^+/PCNA antigen expression” value ([4]; HIV dementia patient 4, DEHOP 0.08 um)?
Its value is 19%.

What about the “% Inhibition of CD14^+/PCNA antigen expression” value ([4]; HIV dementia patient 4, DEHOP 0.4 um) of the same molecule?
The value was 25%.

And the “% Inhibition of CD14^+/PCNA antigen expression” value ([4]; HIV dementia patient 4, DEHOP 2 um)?
Its value is 75%.

And the “CD14^+/PCNA^+” value ([4]; 0.4 (um))?
The value was 25 #cells/10,000 PBMC.

And the “CD14^+/PCNA^−” value ([4]; 0.4 (um))?
Its value is 222 #cells/10,000 PBMC.

And the “total CD14” value ([4]; 0.4 (um))?
Its value is 247 #cells/10,000 PBMC.

What about the “CD14^+/PCNA^+” value ([4]; 2 (um)) of the same molecule?
Its value is 28 #cells/10,000 PBMC.

And the “CD14^+/PCNA^−” value ([4]; 2 (um))?
Its value is 182 #cells/10,000 PBMC.

And the “total CD14” value ([4]; 2 (um))?
The value was 210 #cells/10,000 PBMC.

And the “CD14^+/PCNA^+” value ([4]; 10 um)?
The value was 31 #cells/10,000 PBMC.

What about the “CD14^+/PCNA^−” value ([4]; 10 um) of the same molecule?
The value was 89 #cells/10,000 PBMC.

And the “total CD14” value ([4]; 10 um)?
The value was 120 #cells/10,000 PBMC.

What about the “percentage of proliferating macrophages (as detected by PCNA)” value ([4]; blood of four patients with AIDS dementia, FIG. 1A) of the same molecule?
Its value is “significantly reduced the percentage of proliferating macrophages”.

What about the “inhibitory effect compared with cyclosphosphamide” value ([4]; blood of patient five, Table 1) of the same molecule?
The value was “superior in inhibition”.

And the “% Inhibition of CD14^+/PCNA antigen expression, mean” value (from here on “% Inhibition … mean”) ([4]; DEHOP 0.08 um)?
The value was 19%.

What about the “% Inhibition … mean” value ([4]; DEHOP 0.4 um) of the same molecule?
The value was 62%.

And the “% Inhibition … mean” value ([4]; DEHOP 2 um)?
The value was 78%.

What about the “% Inhibition … mean” value ([4]; DEHOP 10 um) of the same molecule?
Its value is 83%.

What about the “% Inhibition … mean” value ([4]; DEHOP 50 um) of the same molecule?
Its value is 84%.

And the “inhibition and/or killing of blood PCNA^+/CD14^+ cells” value ([4]; summary of the data shown)?
Its value is “potent inhibition and/or killing”.

And the “growth, survival, and cell cycle progression” value [5]?
Its value is “directly affects growth, survival, and cell cycle progression”.
